This is an account of results in patent publication US4442044A, “Process for preparing monoesters and diesters of N-alkyl substituted amino methyl phosphonic acid” (priority 1983, dated 1984).

Holding throughout (assay): post-emergent herbicidal activity, greenhouse
Type in all cases: in vivo
Settings in all cases: Table I

One experiment has as its system Barnyardgrass. The source says:
(§1) A good grade of top soil is placed in aluminum pans having holes in the bottom and compacted to a depth of 0.95 to 1.27 cm. from the top of the pan. A predetermined number of seeds of each of several dicotyledonous and monocotyledonous annual plant species and/or vegetative propagules for the perennial plant species were placed on the soil and pressed into the soil surface. The seeds and/or vegetative propagules are covered with soil and leveled. The pans are then placed on a sand bench in the greenhouse and watered from below as needed. After the plants reach the desired age (two to three weeks), each pan except for the control pans is removed individually to a spraying chamber and sprayed by means of an atomizer operating at a positive air pressure of approximately 1.46 kg/cm^2 absolute. The atomizer contains 6 ml. of a solution or suspension of the chemical. In that 6 ml., is an amount of a cyclohexanone emulsifying agent mixture to give a spray solution or suspension which contains about 0.4% by weight of the emulsifier. The spray solution or suspension contains a sufficient amount of the candidate chemical in order to give application rates corresponding to those set forth in the tables. The spray solution is prepared by taking an aliquot of a 1.0% by weight stock solution or suspension of the candidate chemical in an organic solvent such as acetone or tetrahydrofuran or in water. The emulsifying agent employed is a mixture comprising 35 weight percent butylamine dodecylbenzene sulfonate and 65 weight percent of a tall oil ethylene oxide condensate having about 11 moles of ethylene oxide per mole of tall oil. The pans are returned to the greenhouse and watered as before and the injury to the plants as compared to the control is observed at approximately two and four weeks as indicated in the tables under WAT and the results recorded. In some instances, the two-week observations are omitted.
(§2) The post-emergent herbicidal activity index used in Tables I and II is as follows: […]

The next experiment has as its system Canada Thistle.
From the text: as §1, §2

The subject of the next experiment is Cocklebur.
From the text: as §1, §2

The next experiment deals with Downy Brome.
From the text: as §1, §2

A further experiment concerns Johnsongrass.
From the text: as §1, §2

The subject of another experiment is Lambsquarters.
From the text: as §1, §2

Another experiment deals with Morningglory.
From the text: as §1, §2

Another experiment deals with Quackgrass.
From the text: as §1, §2

Another experiment relates to Smartweed.
From the text: as §1, §2

The next experiment relates to Velvetleaf.
From the text: as §1, §2

The subject of a further experiment is Yellow Nutsedge.
From the text: as §1, §2

Turning to `CCOC(=O)CNCP(=O)(OC(C)(C)C#N)OC(C)(C)C#N` [Example 2, glycine, N-[bis(1-cyano-1-methyl-ethoxy)phosphinylmethyl], ethyl ester], the “post-emergent herbicidal activity index” value is reported as 0 (0-24% control) with Barnyardgrass (2 WAT, 5.6 kg/h); 1 (25-49% control) in the experiment with Barnyardgrass (4 WAT, 11.2 kg/h); 0 (0-24% control) in the experiment on Barnyardgrass (4 WAT, 56.0 kg/h); 4 (100% control) in the experiment on Canada Thistle (4 WAT, 56.0 kg/h); 0 (0-24% control) in the experiment on Cocklebur (2 WAT, 5.6 kg/h); 0 (0-24% control) with Cocklebur (4 WAT, 11.2 kg/h). Besides, the “post-emergent herbicidal activity index” value in the experiment on Cocklebur (4 WAT, 56.0 kg/h) is given as 1 (25-49% control); with Downy Brome (2 WAT, 5.6 kg/h), 0 (0-24% control); in the experiment on Downy Brome (4 WAT, 11.2 kg/h) it was 0 (0-24% control); in the experiment on Downy Brome (4 WAT, 56.0 kg/h), 0 (0-24% control); with Johnsongrass (2 WAT, 5.6 kg/h), 0 (0-24% control); with Johnsongrass (4 WAT, 11.2 kg/h), 0 (0-24% control). Moreover, the “post-emergent herbicidal activity index” value with Johnsongrass (4 WAT, 56.0 kg/h) was 0 (0-24% control); with Lambsquarters (2 WAT, 5.6 kg/h), 0 (0-24% control); in the experiment with Lambsquarters (4 WAT, 11.2 kg/h) it was 0 (0-24% control); with Lambsquarters (4 WAT, 56.0 kg/h), 1 (25-49% control); in the experiment on Morningglory (2 WAT, 5.6 kg/h), 0 (0-24% control); in the experiment with Morningglory (4 WAT, 11.2 kg/h), 0 (0-24% control). Also, the “post-emergent herbicidal activity index” value is on record as 1 (25-49% control) in the experiment on Morningglory (4 WAT, 56.0 kg/h); 0 (0-24% control) in the experiment with Quackgrass (2 WAT, 5.6 kg/h); 0 (0-24% control) in the experiment on Quackgrass (4 WAT, 11.2 kg/h); 0 (0-24% control) with Quackgrass (4 WAT, 56.0 kg/h); 0 (0-24% control) in the experiment with Smartweed (2 WAT, 5.6 kg/h); 0 (0-24% control) in the experiment with Smartweed (4 WAT, 11.2 kg/h). The “post-emergent herbicidal activity index” value in the experiment with Smartweed (4 WAT, 56.0 kg/h) is recorded as 1 (25-49% control); in the experiment on Velvetleaf (2 WAT, 5.6 kg/h), 0 (0-24% control); in the experiment on Velvetleaf (4 WAT, 11.2 kg/h), 0 (0-24% control); with Velvetleaf (4 WAT, 56.0 kg/h), 0 (0-24% control); in the experiment with Yellow Nutsedge (2 WAT, 5.6 kg/h), 0 (0-24% control); in the experiment on Yellow Nutsedge (4 WAT, 11.2 kg/h) it was 0 (0-24% control). The “post-emergent herbicidal activity index” value in the experiment with Yellow Nutsedge (4 WAT, 56.0 kg/h) is reported as 0 (0-24% control).
As for `C#CCNCP(=O)(OC(C)C#N)OC(C)C#N` (centres unmarked) [Example 3, phosphonic acid, [(2-propnylamino)methyl]-,bis(1-cyanoethyl)ester], the “post-emergent herbicidal activity index” value is reported as 2 (50-74% control) with Barnyardgrass (2 WAT, 11.2 kg/h); 0 (0-24% control) in the experiment on Canada Thistle (2 WAT, 11.2 kg/h); 0 (0-24% control) in the experiment with Cocklebur (2 WAT, 11.2 kg/h); 0 (0-24% control) in the experiment with Downy Brome (2 WAT, 11.2 kg/h); 0 (0-24% control) with Johnsongrass (2 WAT, 11.2 kg/h); 0 (0-24% control) in the experiment with Lambsquarters (2 WAT, 11.2 kg/h). Moreover, the “post-emergent herbicidal activity index” value is reported as 0 (0-24% control) in the experiment with Morningglory (2 WAT, 11.2 kg/h); 0 (0-24% control) with Quackgrass (2 WAT, 11.2 kg/h); 1 (25-49% control) with Smartweed (2 WAT, 11.2 kg/h); 0 (0-24% control) in the experiment with Velvetleaf (2 WAT, 11.2 kg/h); 0 (0-24% control) in the experiment with Yellow Nutsedge (2 WAT, 11.2 kg/h).
As to `CC(C#N)OP(=O)(CNC(C)(C)C)OC(C)C#N` (centres unmarked) [Example 4, phosphonic acid, [[(1,1-dimethylethyl)amino]methyl]-,bis(1-cyanoethyl) ester], the “post-emergent herbicidal activity index” value in the experiment with Barnyardgrass (2 WAT, 11.2 kg/h) was 1 (25-49% control); in the experiment on Canada Thistle (2 WAT, 11.2 kg/h), 0 (0-24% control); in the experiment on Cocklebur (2 WAT, 11.2 kg/h), 0 (0-24% control); in the experiment with Downy Brome (2 WAT, 11.2 kg/h) it was 0 (0-24% control); in the experiment on Johnsongrass (2 WAT, 11.2 kg/h), 0 (0-24% control); with Lambsquarters (2 WAT, 11.2 kg/h), 1 (25-49% control). For the same molecule, the “post-emergent herbicidal activity index” value is 0 (0-24% control) with Morningglory (2 WAT, 11.2 kg/h); 0 (0-24% control) in the experiment on Quackgrass (2 WAT, 11.2 kg/h); 1 (25-49% control) with Smartweed (2 WAT, 11.2 kg/h); 0 (0-24% control) with Velvetleaf (2 WAT, 11.2 kg/h); 0 (0-24% control) in the experiment with Yellow Nutsedge (2 WAT, 11.2 kg/h).
